Reference: article PMC3571899, “M48U1 CD4 mimetic has a sustained inhibitory effect on cell-associated HIV-1 by attenuating virion infectivity through gp120 shedding” (Retrovirology, 2013)

What was measured:
HIV-1 Bal [1] = experiment: Antiviral EC50 in PBMCs against HIV-1 Bal; format: cell-based; conditions: linear regression analysis, one experiment with 6 replicates
HIV-1 Bal infected PBMCs = experiment: Gag p24 production by infected PBMCs during 24 h ARV treatment (p24 capture ELISA); format: cell-based; conditions: 24 h treatment at 100x EC50, Gag p24 capture ELISA
Experimental: Figure 1 M48U1 has a memory effect on cell-associated virus. A) The Trojan Horse transmission concept was modeled in vitro using HIV-infected PBMCs which were treated for 24 h with antiretrovirals (ARVs) from different classes at 100x EC50 concentrations. Subsequently, virus production was quantified using a Gag p24 ELISA. To mimic escape from vaginal drug pressure, the infected cells were then incubated in ARV-free medium for three consecutive periods of 24 h. Infectivity of newly produced virions was determined after each period by titration in TZM-bl cells and PBMCs using equal amounts of p24. […] Values represent the 50% Tissue Culture Infective Dose (TCID50)/ml as measured in one experiment carried out in triplicate.
PHA/IL-2 stimulated PBMCs were infected with 2 x 10^-3 multiplicity of infection (MOI) of the CCR5-tropic subtype B strain Bal for three days and subsequently washed extensively to remove the inoculum (Figure 1A). […] The virions produced from these cultures were then quantified in quadruplicate by a Gag p24 capture ELISA [18].

HIV-1 Bal [2] = experiment: Infectivity of de novo virus from pretreated, washed infected PBMCs (memory effect); format: cell-based; conditions: for relative titer of de novo produced virions: PBMCs pretreated 24 h at 100x EC50, washed, 24 h drug-free, titrated on TZM-bl cells with equal p24, relative to untreated control
Experimental: Figure 1 M48U1 has a memory effect on cell-associated virus. A) The Trojan Horse transmission concept was modeled in vitro using HIV-infected PBMCs which were treated for 24 h with antiretrovirals (ARVs) from different classes at 100x EC50 concentrations. Subsequently, virus production was quantified using a Gag p24 ELISA. To mimic escape from vaginal drug pressure, the infected cells were then incubated in ARV-free medium for three consecutive periods of 24 h. Infectivity of newly produced virions was determined after each period by titration in TZM-bl cells and PBMCs using equal amounts of p24. B) Production of Gag p24 by infected PBMCs during 24 h treatment with eleven ARVs: the non-nucleoside reverse transcriptase inhibitors (NNRTIs; blue) UC781 and TMC120, the nucleotide reverse transcriptase inhibitor tenofovir (PMPA; red), the entry inhibitors (grey) maraviroc (MVC), T-20, C34-chol, griffithsin (GRFT) and M48U1, the protease inhibitors (green) lopinavir (LPV) and saquinavir (SQV), and the integrase inhibitor raltegravir (RAL). Values are expressed relative to untreated control cultures and represent the mean +/− SEM of at least three independent experiments, each carried out in triplicate. C) Bal infectivity of de novo produced virus by pretreated infected PBMCs in absence of drug during three consecutive periods of 24 h. Values are expressed relative to untreated control cultures and represent the mean +/− SEM of at least three independent experiments, each carried out in triplicate. D) Infectivity of de novo produced transmitted/founder viruses REJO and THRO (subtype B) and Bal by M48U1 treated infected PBMCs in absence of drug during three consecutive periods of 24 h. Values are expressed relative to untreated control cultures. E) Infectivity of wild type (black) and M48U1-resistant (red) Bal virus produced during a 24 h period in absence of drug by pretreated infected PBMCs. Values represent the 50% Tissue Culture Infective Dose (TCID50)/ml as measured in one experiment carried out in triplicate.
PHA/IL-2 stimulated PBMCs were infected with 2 x 10^-3 multiplicity of infection (MOI) of the CCR5-tropic subtype B strain Bal for three days and subsequently washed extensively to remove the inoculum (Figure 1A). Next, cells were incubated for 24 hours with ARVs from different classes at 100x EC50 concentrations for each compound (Table 1). The virions produced from these cultures were then quantified in quadruplicate by a Gag p24 capture ELISA [18].
Next, we evaluated whether these ARVs affected the infectivity of the virus produced. PBMCs were infected as described above and were washed extensively to remove inhibitor and incubated in fresh medium for a new round of viral replication. After 24 h, supernatant was harvested, and then assessed for its ability to infect TZM-bl cells using identical viral inocula (based on equal amounts of Gag p24). The obtained viral titers were expressed as a percentage, relative to the untreated control cultures (Figure 1C). […] A smaller loss in titer was observed after treatment with the PIs saquinavir (relative titer of 47%) and lopinavir (relative titer of 14%), and the carbohydrate binding protein griffithsin (relative titer of 31%). The same samples were assayed in a multi-cycle infectivity assay with PBMCs, with similar results (Figure 1C). […]

H9+ cells = conditions: pretreatment of infected cells, syncytium formation; cited from earlier work
From the text: We hypothesized that M48U1 associates with gp120 molecules expressed on the cell membrane of infected cells prior to viral budding. If M48U1 dissociates very slowly from its target and is retained after washing, this could cause the production of defective virions. However, if this were the case, one would expect a similar attenuation effect for the tight-binding RT inhibitors UC781 and TMC120.

[3] = Human immunodeficiency virus 1, PBMC

## Cc1cc(C)c(Nc2ccnc(Nc3ccc(C#N)cc3)n2)c(C)c1 [Dapivirine (TMC120)]
HIV-1 Bal [1]; [3]
  EC50: 5 nM

## Cc1cccc(C)c1OCC(=O)N[C@@H](Cc1ccccc1)[C@@H](O)C[C@H](Cc1ccccc1)NC(=O)[C@H](C(C)C)N1CCCNC1=O [Lopinavir (LPV)]
HIV-1 Bal [1]; [3]
  EC50: 40 nM
HIV-1 Bal infected PBMCs
  lower Gag p24 concentration in culture supernatant vs untreated control: 0.5-1 log
HIV-1 Bal [2]
  relative titer of de novo produced virions: 14%

## Cc1nnc(C(=O)NC(C)(C)c2nc(C(=O)NCc3ccc(F)cc3)c(O)c(=O)n2C)o1 [Raltegravir (RLT)]
HIV-1 Bal [1]; [3]
  EC50: 18 nM

## CC(C)(C)NC(=O)[C@@H]1C[C@@H]2CCCC[C@@H]2CN1C[C@@H](O)[C@H](Cc1ccccc1)NC(=O)[C@H](CC(N)=O)NC(=O)c1ccc2ccccc2n1 [Saquinavir (SQV)]
HIV-1 Bal [1]; [3]
  EC50: 35 nM
HIV-1 Bal infected PBMCs
  lower Gag p24 concentration in culture supernatant vs untreated control: 0.5-1 log
HIV-1 Bal [2]
  relative titer of de novo produced virions: 47%

## C[C@H](Cn1cnc2c(N)ncnc21)OCP(=O)(O)O [Tenofovir (TFV)]
HIV-1 Bal [1]; [3]
  EC50: 4800 nM

## CC(C)=CCOc1cc(NC(=S)c2ccoc2C)ccc1Cl [UC781]
H9+ cells
  reduction in the infectivity of de novo produced virus: fivefold reduction
HIV-1 Bal [1]; [3]
  EC50: 35 nM
HIV-1 Bal [2]
  relative titer of de novo produced virions: 75%

## Griffithsin (GRFT): carbohydrate binding protein, binds glycans on gp120
HIV-1 Bal [1]
  EC50: 1.5 nM
HIV-1 Bal [2]; 72 hours post-exposure, TZM-bl cells and PBMCs
  times less infectious than virions from control cultures: two
HIV-1 Bal [2]
  relative titer of de novo produced virions: 31%
